Numbered stars: 1 amine (or outer) side, 2 acyl side, 3 side chain; on linkers, the order of the positions; unused ones are H or OH. Bridge positions count the residues as written; N and C are the ends. Square brackets hold non-standard residues; d marks the D form. Peptide text beside a SMILES is read from it. * marks the point of attachment. ξ: configuration not given here. Phe(3-CF3) = N[C@@H](Cc1cccc(C(F)(F)F)c1)C(=O)O; Phe(4-COOH) = N[C@@H](Cc1ccc(C(=O)O)cc1)C(=O)O; Bip = N[C@@H](Cc1ccc(-c2ccccc2)cc1)C(=O)O; NH(CH2)16COOH = O=C(O)CCCCCCCCCCCCCCCCN*; NH(CH2)14COOH = O=C(O)CCCCCCCCCCCCCCN*; Phe(3-Me) = Cc1cccc(C[C@H](N)C(=O)O)c1; γGlu = O=C(O)[C@H](CCC(=O)[*:2])N[*:1]; NH(CH2)12COOH = O=C(O)CCCCCCCCCCCCN*; Val(3-OH) = CC(C)(O)[C@H](N)C(=O)O; Cha = N[C@@H](CC1CCCCC1)C(=O)O; Thr(3ξ) = CC(O)[C@H](N)C(=O)O; Carboxymethyl = O=C(O)C*; Orn = NCCC[C@H](N)C(=O)O; Dab = NCC[C@H](N)C(=O)O; AEEA = NCCOCCOCC(=O)O

For the assay, the target named is T1, PD-1/PD-L1 interaction (PE-labeled human PD-L1-Ig binding to Jurkat cell line over-expressing human PD-1) (Homo sapiens, UniProt Q15116).
T1 construct: expressed in transfected cells; host or cells: Jurkat
T1 sequence (Q15116 25-288): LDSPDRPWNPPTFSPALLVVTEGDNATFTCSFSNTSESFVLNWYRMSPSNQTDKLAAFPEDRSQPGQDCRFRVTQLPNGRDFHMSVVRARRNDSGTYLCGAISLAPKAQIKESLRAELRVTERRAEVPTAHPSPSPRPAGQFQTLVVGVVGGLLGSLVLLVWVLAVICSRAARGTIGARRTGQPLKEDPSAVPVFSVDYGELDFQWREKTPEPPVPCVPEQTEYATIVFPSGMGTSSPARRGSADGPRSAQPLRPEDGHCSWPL
As to the kind of experiment: Jurkat-PD-1 Cell Binding High-Content Screening Assay (CBA). Format: cell-based. The settings on record: Jurkat cell line over-expressing human PD-1; PE-labeled PD-L1-Ig 20 nM final; read-out: Jurkat hPD1-PDL1 IC50. A digest of the protocol:
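Binding of fluorescent PD-L1-Ig (20 nM final) to Jurkat-PD-1 cells was measured by automated imaging after 1 h, following a 2 h compound pre-treatment at 37° C.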
Consider `CC(C)C[C@H]1NC(=O)[C@H](Cc2cnc[nH]2)NC(=O)[C@H](Cc2ccc(C(=O)O)cc2)NC(=O)[C@H](Cc2ccc(-c3ccccc3)cc2)NC(=O)[C@H](Cc2ccc(C(=O)O)cc2)NC(=O)[C@H](Cc2cccc(C(F)(F)F)c2)NC(=O)[C@H](CC(=O)O)NC(=O)[C@H](Cc2ccc(C(=O)O)cc2)NC(=O)[C@H](C(C)O)NC(=O)CSC[C@@H](C(=O)N[C@@H](CCN)C(=O)NCCOCCOCC(=O)NCCCCCCCCCCCCC(=O)O)NC(=O)[C@H](CC(=O)O)NC(=O)[C@H](C(C)C)NC(=O)[C@H](CC2CCCCC2)NC(=O)[C@H](CCN)NC1=O` (stereo partly drawn) [Compound 3867] ({CH2CO}-[Thr(3ξ)][Phe(4-COOH)]D[Phe(3-CF3)][Phe(4-COOH)][Bip][Phe(4-COOH)]H[dL][Dab][Cha]VDC[Dab][AEEA]-{NH(CH2)12COOH}; thioether N-14), for which the IC50 (commonly the concentration needed to halve the response being measured) was found to be 48.1 nM.
For `CC(C)C[C@H]1NC(=O)[C@H](CCCN)NC(=O)[C@H](Cc2ccc(OCC(=O)O)cc2)NC(=O)[C@H](Cc2ccc(-c3ccccc3)cc2)NC(=O)[C@H](Cc2ccc(OCC(=O)O)cc2)NC(=O)[C@H](Cc2cccc(C(F)(F)F)c2)NC(=O)[C@H](CC(=O)O)NC(=O)[C@H](Cc2ccc(OCC(=O)O)cc2)NC(=O)[C@H](Cc2c[nH]cn2)NC(=O)CSC[C@@H](C(=O)N[C@@H](CCN)C(=O)NCCCCCCCCCCCCCCC(=O)O)NC(=O)[C@H](CCC(=O)O)NC(=O)[C@H](C(C)(C)O)NC(=O)[C@H](CC2CCCCC2)NC(=O)[C@H](CCN)NC1=O` [Compound 3868] ({CH2CO}-HY(Carboxymethyl)D[Phe(3-CF3)]Y(Carboxymethyl)[Bip]Y(Carboxymethyl)[Orn][dL][Dab][Cha][Val(3-OH)]EC[Dab]-{NH(CH2)14COOH}; thioether N-14), the IC50 was 156 nM.
For `Cc1cccc(C[C@@H]2NC(=O)[C@H](CC(=O)O)NC(=O)[C@H](Cc3ccc(OCC(=O)O)cc3)NC(=O)[C@H](C)NC(=O)CSC[C@@H](C(=O)N[C@@H](CCN)C(=O)NCCOCCOCC(=O)NCCOCCOCC(=O)NCCOCCOCC(=O)NCCOCCOCC(=O)NCCCCCCCCCCCCCCC(=O)O)NC(=O)[C@H](CO)NC(=O)[C@H](C(C)(C)O)NC(=O)[C@H](CC3CCCCC3)NC(=O)[C@H](CCN)NC(=O)[C@@H](CC(C)C)NC(=O)[C@H](CCCN)NC(=O)[C@H](Cc3ccc(OCC(=O)O)cc3)NC(=O)[C@H](Cc3ccc(-c4ccccc4)cc3)NC(=O)[C@H](Cc3ccc(OCC(=O)O)cc3)NC2=O)c1` [Compound 3869] ({CH2CO}-AY(Carboxymethyl)D[Phe(3-Me)]Y(Carboxymethyl)[Bip]Y(Carboxymethyl)[Orn][dL][Dab][Cha][Val(3-OH)]SC[Dab][AEEA][AEEA][AEEA][AEEA]-{NH(CH2)14COOH}; thioether N-14) the value was 71.1 nM; for `Cc1cccc(C[C@@H]2NC(=O)[C@H](CC(=O)O)NC(=O)[C@H](Cc3ccc(OCC(=O)O)cc3)NC(=O)[C@H](C)NC(=O)CSC[C@@H](C(=O)N[C@@H](CCN)C(=O)NCCOCCOCC(=O)NCCOCCOCC(=O)NCCOCCOCC(=O)NCCOCCOCC(=O)NCCCCCCCCCCCCCCC(=O)O)NC(=O)[C@H](Cc3cnc[nH]3)NC(=O)[C@H](C(C)(C)O)NC(=O)[C@H](CC3CCCCC3)NC(=O)[C@H](CCN)NC(=O)[C@@H](CC(C)C)NC(=O)[C@H](CCCN)NC(=O)[C@H](Cc3ccc(OCC(=O)O)cc3)NC(=O)[C@H](Cc3ccc(-c4ccccc4)cc3)NC(=O)[C@H](Cc3ccc(OCC(=O)O)cc3)NC2=O)c1` [Compound 3870] ({CH2CO}-AY(Carboxymethyl)D[Phe(3-Me)]Y(Carboxymethyl)[Bip]Y(Carboxymethyl)[Orn][dL][Dab][Cha][Val(3-OH)]HC[Dab][AEEA][AEEA][AEEA][AEEA]-{NH(CH2)14COOH}; thioether N-14), 28 nM.
Take `Cc1cccc(C[C@@H]2NC(=O)[C@H](CC(=O)O)NC(=O)[C@H](Cc3ccc(OCC(=O)O)cc3)NC(=O)[C@H](C)NC(=O)CSC[C@@H](C(=O)N[C@@H](CCN)C(=O)NCCOCCOCC(=O)NCCOCCOCC(=O)N[C@@H](CCC(=O)N[C@@H](CCC(=O)NCCCCCCCCCCCCCCCCC(=O)O)C(=O)O)C(=O)O)NC(=O)[C@H](Cc3c[nH]cn3)NC(=O)[C@H](C(C)(C)O)NC(=O)[C@H](CC3CCCCC3)NC(=O)[C@H](CCN)NC(=O)[C@@H](CC(C)C)NC(=O)[C@H](CCCN)NC(=O)[C@H](Cc3ccc(OCC(=O)O)cc3)NC(=O)[C@H](Cc3ccc(-c4ccccc4)cc3)NC(=O)[C@H](Cc3ccc(OCC(=O)O)cc3)NC2=O)c1` [Compound 3871] ({CH2CO}-AY(Carboxymethyl)D[Phe(3-Me)]Y(Carboxymethyl)[Bip]Y(Carboxymethyl)[Orn][dL][Dab][Cha][Val(3-OH)]HC[Dab][AEEA][AEEA][γGlu][γGlu]-{NH(CH2)16COOH}; thioether N-14): the IC50 turned out to be 45.7 nM.
Turning to `CC(C)C[C@H]1NC(=O)[C@H](CCCN)NC(=O)[C@H](Cc2ccc(OCC(=O)O)cc2)NC(=O)[C@H](Cc2ccc(-c3ccccc3)cc2)NC(=O)[C@H](Cc2ccc(OCC(=O)O)cc2)NC(=O)[C@H](Cc2cccc(C(F)(F)F)c2)NC(=O)[C@H](CC(=O)O)NC(=O)[C@H](Cc2ccc(OCC(=O)O)cc2)NC(=O)[C@H](Cc2ccc(OCC(=O)O)cc2)NC(=O)CSC[C@@H](C(=O)N[C@@H](CCN)C(=O)NCCOCCOCC(=O)NCCOCCOCC(=O)N[C@@H](CCC(=O)N[C@@H](CCC(=O)NCCCCCCCCCCCCCCC(=O)O)C(=O)O)C(=O)O)NC(=O)[C@H](Cc2cnc[nH]2)NC(=O)[C@H](C(C)(C)O)NC(=O)[C@H](CC2CCCCC2)NC(=O)[C@H](CCN)NC1=O` [Compound 3872] ({CH2CO}-Y(Carboxymethyl)Y(Carboxymethyl)D[Phe(3-CF3)]Y(Carboxymethyl)[Bip]Y(Carboxymethyl)[Orn][dL][Dab][Cha][Val(3-OH)]HC[Dab][AEEA][AEEA][γGlu][γGlu]-{NH(CH2)14COOH}; thioether N-14), the IC50 worked out at 174 nM.
In the case of `CC(C)C[C@@H]1NC(=O)CSC[C@@H](C(=O)N[C@@H](CCN)C(=O)NCCCCCCCCCCCCC(=O)O)NC(=O)[C@H](Cc2cnc[nH]2)NC(=O)[C@H](C(C)(C)O)NC(=O)[C@H](CC2CCCCC2)NC(=O)[C@H](CCN)NC(=O)[C@@H](CC(C)C)NC(=O)[C@H](CCCN)NC(=O)[C@H](Cc2ccc(OCC(=O)O)cc2)NC(=O)[C@H](Cc2ccc(-c3ccccc3)cc2)NC(=O)[C@H](Cc2ccc(OCC(=O)O)cc2)NC(=O)[C@H](Cc2cccc(C(F)(F)F)c2)NC(=O)[C@H](CC(=O)O)NC(=O)[C@H](Cc2ccc(OCC(=O)O)cc2)NC1=O` [Compound 3873] ({CH2CO}-LY(Carboxymethyl)D[Phe(3-CF3)]Y(Carboxymethyl)[Bip]Y(Carboxymethyl)[Orn][dL][Dab][Cha][Val(3-OH)]HC[Dab]-{NH(CH2)12COOH}; thioether N-14) it was 70.5 nM; in that of `CC(C)C[C@@H]1NC(=O)CSC[C@@H](C(=O)N[C@@H](CCN)C(=O)NCCCCCCCCCCCCCCC(=O)O)NC(=O)[C@H](CCC(=O)O)NC(=O)[C@H](C(C)(C)O)NC(=O)[C@H](CC2CCCCC2)NC(=O)[C@H](CCN)NC(=O)[C@@H](CC(C)C)NC(=O)[C@H](CCCN)NC(=O)[C@H](Cc2ccc(OCC(=O)O)cc2)NC(=O)[C@H](Cc2ccc(-c3ccccc3)cc2)NC(=O)[C@H](Cc2ccc(OCC(=O)O)cc2)NC(=O)[C@H](Cc2cccc(C(F)(F)F)c2)NC(=O)[C@H](CC(=O)O)NC(=O)[C@H](Cc2ccc(OCC(=O)O)cc2)NC1=O` [Compound 3874] ({CH2CO}-LY(Carboxymethyl)D[Phe(3-CF3)]Y(Carboxymethyl)[Bip]Y(Carboxymethyl)[Orn][dL][Dab][Cha][Val(3-OH)]EC[Dab]-{NH(CH2)14COOH}; thioether N-14), 815 nM.

Values taken from US20260022142A1, “MACROCYCLIC IMMUNOMODULATORS” (Bristol-Myers Squibb Company, priority 2022, published 2026).
